Measurements from ChEMBL document CHEMBL1149668, “Synthesis and cytotoxicity of desmethoxycallipeltin B: lack of a quinone methide for the cytotoxicity of callipeltin B” (Bioorg Med Chem Lett, 2007).
pIC50: −log10 of the molar value.

Test system: HeLa
Test: Cytotoxicity against HeLa cells by MTT […] assay
Type: functional, cell-based
Details: Homo sapiens

Row | Compound | pIC50
1 | CO[C@H](c1ccc(O)cc1)[C@H]1NC(=O)[C@H](CCC(N)=O)N(C)C(=O)[C@H](CC(C)C)NC(=O)[C@@H](CCCNC(=N)N)NC(=O)[C@@H]([C@@H](C)O)NC(=O)[C@H](NC(=O)[C@H]2NC(=O)[C@H](C)[C@@H]2C)[C@@H](C)OC(=O)[C@H](C)N(C)C1=O [CALLIPELTIN B] | 4.01
2 | CC(C)C[C@@H]1NC(=O)[C@@H](CCCNC(=N)N)NC(=O)[C@@H]([C@@H](C)O)NC(=O)[C@H](NC(=O)[C@H]2NC(=O)[C@H](C)[C@@H]2C)[C@@H](C)OC(=O)[C@H](C)N(C)C(=O)[C@@H](Cc2ccc(O)cc2)NC(=O)[C@H](CCC(N)=O)N(C)C1=O [DESMETHOXYCALLIPELTIN B] | 3.89
